Experimental data taken from patent US11345712B2, “Protein-targeting compounds and pharmaceutical compositions thereof, and their therapeutic applications” (BioTheryX, Inc., priority 2019, dated 2022).

Test system: MOLM-13 cells
Assay: MOLM-13 cell viability assay (CellTiter-Glo)
Format: cell-based
Conditions: 3 days, concentration of 1 μM; for cytotoxicity at 1 µM: Homo sapiens, MOLM-13, 72 h, read-out: Antiproliferative Activity (inhibition, MOLM-13 cell viability)
Protocol: MOLM-13 cells were cultured in RPMI 1640 media supplemented with 10% fetal bovine serum, streptomycin, and penicillin. The cells were plated in white walled 96-well plates at 2,500 cells/well. The cells were incubated in DMSO (control) or an indicated compound for 3 days at 37° C. and 5% CO2. Following the incubation period, 100 μL of CELLTITER-GLO® (CTG) reagent was added to each well. Following a 10 minutes incubation with shaking, luminescence was measured using an ENVISION® Multimode plate reader.

| Structure (SMILES) | Antiproliferative Activity (inhibition, MOLM-13 cell viability) | cytotoxicity at 1 µM [%] |
| --- | --- | --- |
| CC(C)(C)c1ccc(C(=O)C(=O)NCc2cc3c(s2)C(=O)N(C2CCC(=O)NC2=O)C3)cc1 (stereo not shown) [Compound I-35, 2-(4-(tert-butyl)phenyl)-N-((5-(2,6-dioxopiperidin-3-yl)-6-oxo-5,6-dihydro-4H-thieno[2,3-c]pyrrol-2-yl)methyl)-2-oxoacetamide] | D (a value less than 25% inhibition) | – |
| CC(c1ccc(C(=O)C(=O)NCc2scc3c2CN(C2CCC(=O)NC2=O)C3=O)cc1)C(F)(F)F (stereo not shown) [Compound I-36, N-((5-(2,6-dioxopiperidin-3-yl)-4-oxo-5,6-dihydro-4H-thieno[3,4-c]pyrrol-1-yl)methyl)-2-oxo-2-(4-(1,1,1-trifluoropropan-2-yl)phenyl)acetamide] | – | 25 to 50 |
| CC(C)c1ccc(C(=O)C(=O)NCc2ccc3c(c2)CN(C2CCC(=O)NC2=O)C3=O)s1 (stereo not shown) [Compound I-37, N-((2-(2,6-dioxopiperidin-3-yl)-1-oxoisoindolin-5-yl)methyl)-2-(5-isopropylthiophen-2-yl)-2-oxoacetamide] | – | > 80 |
| CC(C)(C)c1ccc(C(=O)C(=O)NCc2cccc3c2C(=O)N(C2CCC(=O)NC2=O)C3)cc1 (stereo not shown) [Compound I-38, 2-(4-(tert-butyl)phenyl)-N-((2-(2,6-dioxopiperidin-3-yl)-3-oxoisoindolin-4-yl)methyl)-2-oxoacetamide] | – | < 25 |
| CC(C)(C)c1ccc(C(=O)C(=O)NCc2csc3c2CN(C2CCC(=O)NC2=O)C3=O)cc1 (stereo not shown) [Compound I-39, 2-(4-(tert-butyl)phenyl)-N-((5-(2,6-dioxopiperidin-3-yl)-6-oxo-5,6-dihydro-4H-thieno[2,3-c]pyrrol-3-yl)methyl)-2-oxoacetamide] | – | > 80 |
| CC(C)(C)c1ccc(C(=O)C(=O)NCc2scc3c2CN(C2CCC(=O)NC2=O)C3=O)cc1 (stereo not shown) [Compound I-40, 2-(4-(tert-butyl)phenyl)-N-((5-(2,6-dioxopiperidin-3-yl)-4-oxo-5,6-dihydro-4H-thieno[3,4-c]pyrrol-1-yl)methyl)-2-oxoacetamide] | D (a value less than 25% inhibition) | – |
| CC(C)(C)c1ccc(C(=O)C(=O)NCCc2scc3c2CN(C2CCC(=O)NC2=O)C3=O)cc1 (stereo not shown) [Compound I-41, 2-(4-(tert-butyl)phenyl)-N-(2-(5-(2,6-dioxopiperidin-3-yl)-4-oxo-5,6-dihydro-4H-thieno[3,4-c]pyrrol-1-yl)ethyl)-2-oxoacetamide] | – | > 80 |
| CC1(c2ccc(C(=O)C(=O)NCc3scc4c3CN(C3CCC(=O)NC3=O)C4=O)cc2)CC1 (stereo not shown) [Compound I-42, N-((5-(2,6-dioxopiperidin-3-yl)-4-oxo-5,6-dihydro-4H-thieno[3,4-c]pyrrol-1-yl)methyl)-2-(4-(1-methylcyclopropyl)phenyl)-2-oxoacetamide] | – | 50 to 80 |
| CC(C)(CO)c1ccc(C(=O)C(=O)NCc2scc3c2CN(C2CCC(=O)NC2=O)C3=O)cc1 (stereo not shown) [Compound I-43, N-((5-(2,6-dioxopiperidin-3-yl)-4-oxo-5,6-dihydro-4H-thieno[3,4-c]pyrrol-1-yl)methyl)-2-(4-(1-hydroxy-2-methylpropan-2-yl)phenyl)-2-oxoacetamide] | – | < 25 |
| Cc1ccc(C(=O)C(=O)NCc2scc3c2CN(C2CCC(=O)NC2=O)C3=O)cc1N(C)C (stereo not shown) [Compound I-44, 2-(3-(dimethylamino)-4-methylphenyl)-N-((5-(2,6-dioxopiperidin-3-yl)-4-oxo-5,6-dihydro-4H-thieno[3,4-c]pyrrol-1-yl)methyl)-2-oxoacetamide] | – | > 80 |
| CC(C)(C)c1ccc(C(=O)C(=O)NCc2cc3c(s2)C(=O)N(C2CCC(=O)NC2=O)C3)cc1 (stereo not shown) [Compound I-45, 2-(4-(tert-butyl)phenyl)-N-((5-(2,6-dioxopiperidin-3-yl)-6-oxo-5,6-dihydro-4H-thieno[2,3-c]pyrrol-2-yl)methyl)-2-oxoacetamide] | B (a value less than 80% but no less than 50%) | – |
| CC(C)(C)c1cccc(C(=O)C(=O)NCc2cccc3c2CN(C2CCC(=O)NC2=O)C3=O)c1 (stereo not shown) [Compound I-46, 2-(3-(tert-butyl)phenyl)-N-((2-(2,6-dioxopiperidin-3-yl)-1-oxoisoindolin-4-yl)methyl)-2-oxoacetamide] | – | 25 to 50 |
| CN(Cc1cccc2c1CN(C1CCC(=O)NC1=O)C2=O)C(=O)C(=O)c1ccc(C(C)(C)C)cc1 (stereo not shown) [Compound I-47, 2-(4-(tert-butyl)phenyl)-N-((2-(2,6-dioxopiperidin-3-yl)-1-oxoisoindolin-4-yl)methyl)-N-methyl-2-oxoacetamide] | – | < 25 |
| CC(C)(C)c1ccc(C(=O)C(=O)NCc2cccc3c2C(=O)N(C2CCC(=O)NC2=O)C3=O)cc1 (stereo not shown) [Compound I-48, 2-(4-(tert-butyl)phenyl)-N-((2-(2,6-dioxopiperidin-3-yl)-1,3-dioxoisoindolin-4-yl)methyl)-2-oxoacetamide] | – | < 25 |
| CC(C)[C@@H](N)C(=O)OCN1C(=O)CCC(N2Cc3c(CNC(=O)C(=O)c4ccc(C(C)(C)C)cc4)cccc3C2=O)C1=O (stereo partly drawn) [Compound I-49, (2R)-(3-(4-((2-(4-(tert-butyl)phenyl)-2-oxoacetamido)methyl)-1-oxoisoindolin-2-yl)-2,6-dioxopiperidin-1-yl)methyl 2-amino-3-methylbutanoate] | – | 50 to 80 |
| CC(C)(C)c1ccc(C(=O)C(=O)NCc2c(F)ccc3c2CN(C2CCC(=O)NC2=O)C3=O)cc1 (stereo not shown) [Compound I-50, 2-(4-(tert-butyl)phenyl)-N-((2-(2,6-dioxopiperidin-3-yl)-5-fluoro-1-oxoisoindolin-4-yl)methyl)-2-oxoacetamide] | – | < 25 |
| CC(C)(C)c1ccc(C(=O)C(=O)NCc2c(F)c(F)cc3c2CN(C2CCC(=O)NC2=O)C3=O)cc1 (stereo not shown) [Compound I-51, 2-(4-(tert-butyl)phenyl)-N-((2-(2,6-dioxopiperidin-3-yl)-5,6-difluoro-1-oxoisoindolin-4-yl)methyl)-2-oxoacetamide] | – | < 25 |
| O=C1CCC(N2Cc3cc(CCNC(=O)C(=O)c4ccc(C5(C(F)(F)F)CC5)cc4)ccc3C2=O)C(=O)N1 (stereo not shown) [Compound I-52, N-(2-(2-(2,6-Dioxopiperidin-3-yl)-1-oxoisoindolin-5-yl)ethyl)-2-oxo-2-(4-(1-(trifluoromethyl)cyclopropyl)phenyl)acetamide] | – | 25 to 50 |
| Cc1ccc(C(=O)C(=O)NCc2ccc3c(c2)CN(C2CCC(=O)NC2=O)C3=O)cc1Cl (stereo not shown) [Compound I-53, 2-(3-chloro-4-methylphenyl)-N-((2-(2,6-dioxopiperidin-3-yl)-1-oxoisoindolin-5-yl)methyl)-2-oxoacetamide] | – | > 80 |
| Cc1cc(C(=O)C(=O)NCc2cccc3c2CN(C2CCC(=O)NC2=O)C3=O)ccc1C(C)(C)C (stereo not shown) [Compound I-54, 2-(3-methyl-4-(tert-butyl)phenyl)-N-((2-(2,6-dioxopiperidin-3-yl)-1-oxoisoindolin-4-yl)methyl)-2-oxoacetamide] | – | > 80 |
| Cc1cc(C(=O)C(=O)NCc2ccc3c(c2)CN(C2CCC(=O)NC2=O)C3=O)ccc1C(C)(C)C (stereo not shown) [Compound I-55, 2-(3-methyl-4-(tert-butyl)phenyl)-N-((2-(2,6-dioxopiperidin-3-yl)-1-oxoisoindolin-5-yl)methyl)-2-oxoacetamide] | – | > 80 |
| CC(C)(C)c1ccc(C(=O)C(=O)Nc2cccc3c2CN(C2CCC(=O)NC2=O)C3=O)cc1 (stereo not shown) [Compound I-56, 2-(4-(tert-butyl)phenyl)-N-(2-(2,6-dioxopiperidin-3-yl)-1-oxoisoindolin-4-yl)-2-oxoacetamide] | – | < 25 |
